Converted amounts (≈) assume the structure as drawn. “And” between values parts separate entries of the source, which are not always exact repeats. Identical values can stand only once. Like-named read-outs stand apart in the source and are kept apart here.
Key:
Microsomal stability = type: in vitro ADME; conditions: mouse liver microsomes, NADPH, 37°C; read-out: half-life in mouse liver microsomes (t1/2)
Description: Microsomal stability assay was performed as previously described. CCG-211790 (100 mM stock solution in DMSO) was diluted 1000-fold with phosphate-buffered saline (PBS) containing up to 10% MeOH as a co-solvent. Compound (100 μM) was added to 366 μL of 100 mM phosphate buffer containing 3.3 mM MgCl2 and 10 μL of 20 mg/mL mouse liver microsomal extract (XenoTech, Lenexa, KS, USA). Enzymatic oxidation was initiated by adding 15 μL of 16.7 mg/mL NADPH in 100 mM phosphate buffer containing 3.3 mM MgCl2. The reactions were carried out at 37°C for 60 min. Aliquots of the reaction mixture (30 μL) were sampled and the reaction was stopped by adding 90 μL cold acetonitrile containing an internal standard compound at each time point (0, 1, 3, 5, 10, 30, and 60 min). The quenched sample mixtures were centrifuged at 16,000 g for 10 min. The supernatant was then analyzed via an LC–MS/MS system equipped with a reverse-phase column.

[1] = Mammalian cell cytotoxicity assay (CCK-8); type: cell-based, human; conditions: human, TZM-bL cells, 24 h
Description: (§1) Cell cytotoxicity assay was performed by following previous protocols with minor revision. TZM-bL cells which is a HeLa cell derivative (a generous gift from Dr. Xiao Heng, University of Missouri) (100 μL, 5,000 cells per well) were grown in Dulbecco’s modified Eagle’s medium (DMEM) (Life Technologies, Grand Island, NY, USA) with 10% fetal bovine serum for 24 h at 37°C in 5% CO2 in duplicates. Supernatant was replaced with 100 μL fresh medium with different concentrations of CCG-211790 to culture the cells for 24 h at 37°C in 5% CO2. DMSO was used as the vehicle control. Ten μL of Cell Counting Kit-8 (CCK-8) solution (APExBIO, Houston, TX, USA) was added to each well of the plate. After 2 h, the plate was read at 450 nm by using a BioTek spectrophotometer (BioTek, Winooski, VT, USA). One hundred percent viability was set at the absorbance of the cells treated with only the vehicle (DMSO). The assay was performed twice in duplicates to obtain the mean and standard deviation of cell viability. The cell viability (survival rate) was calculated with the equation: Survival rate (%) = [(As—Ab) / (Ac—Ab)] x 100, As = Absorbance of tested compound (Absorbance of well containing cells, culture medium, CCK-8 and compound), Ab = Absorbance of blank (Absorbance of well containing culture medium and CCK-8), Ac = Absorbance of control (Absorbance of well containing cell, DMSO and CCK-8).

TZM-bL cells = assay: Mammalian cell cytotoxicity assay (CCK-8); type: cell-based, human; conditions: for Cell viability %: single samples
Description: as §1

Solubility in water = type: physicochemical
Description: The concentration of CCG-211790 in deionized water or aqueous solutions was determined using an Agilent series 1100 HPLC system (Agilent Technologies, Santa Clara, CA, USA) equipped with diode array detector. Sample separation was carried out with a Kinetex C18 column (75 mm × 3 mm, particle size 2.6 μm, Phenomenex Inc., Torrance, CA, USA). The mobile phase of acetonitrile-water (50:50, v/v) was used for chromatographic separation. The flow rate was set to 0.5 mL/min, column temperature to 35°C. The absorption was measured at wavelength 255 nm. The injection volume was 30 μL. The retention time of CCG-211790 was 4.9 min. The method detection limit was 0.02 mg/L. Calibration curves were established giving a correlation coefficient >0.9900. To determine the solubility of CCG-211790 in water, an excess amount of CCG-211790 powder was added into water. […] The sample aliquots (0.5 mL each) were centrifuged at 20,000 ×g for 5 min with Amicon Ultra-0.5 Centrifugal Filter Units (MWCO 3000 Da, Millipore Corp., Billerica, MA, USA). Solutions passing through the filter were diluted 2-fold with acetonitrile and CCG-211790 concentration in water was determined by HPLC analysis. The experiment was run in triplicate with mean values and standard deviations being reported.

[2] = Solubility in water containing sodium dodecyl sulfate (SDS); type: physicochemical; conditions: aqueous with cosolvent or surfactant or cyclodextrin, thermodynamic from solid, 37°C; for solubility at 24 h / solubility at 48 h: 200 rpm; for solubility: mean of 24 and 48 h
Description: The concentration of CCG-211790 in deionized water or aqueous solutions was determined using an Agilent series 1100 HPLC system (Agilent Technologies, Santa Clara, CA, USA) equipped with diode array detector. Sample separation was carried out with a Kinetex C18 column (75 mm × 3 mm, particle size 2.6 μm, Phenomenex Inc., Torrance, CA, USA). The mobile phase of acetonitrile-water (50:50, v/v) was used for chromatographic separation. The flow rate was set to 0.5 mL/min, column temperature to 35°C. The absorption was measured at wavelength 255 nm. The injection volume was 30 μL. The retention time of CCG-211790 was 4.9 min. The method detection limit was 0.02 mg/L. Calibration curves were established giving a correlation coefficient >0.9900. The procedure to determine solubility in water with presence of SDS is based on the Paddle Method as described in the U.S. Pharmacopeia <711> on the in vitro dissolution tests with minor revision. To determine the saturation solubility in water containing SDS, CCG-211790 bulk powder was added in excess (around 5 mg of CCG-211790) to 10 mL of SDS solutions with various concentrations (0.5, 1.0 or 2.0% w/v). After incubation for 24–48 h in a shaking incubator at 37°C and 200 rpm to reach saturation status, aliquot (2 mL) of the incubated sample was filtered through a 0.22 μm Millipore filter (Millipore Corp., Billerica, MA, USA). Solutions passing through the filter were collected (0.5 mL) and were diluted 2-fold with acetonitrile. CCG-211790 concentration in SDS solutions was determined by HPLC analysis.

[3] = TZM-bL cells (HeLa cell derivative), single samples, read-out: Cell viability %
[4] = TZM-bL cells (HeLa cell derivative), read-out: Mean of cell viability
[5] = 0.5% (w/v) SDS solution, 0.5% (w/v) SDS
[6] = 1.0% (w/v) SDS solution, 1.0% (w/v) SDS
[7] = 2.0% (w/v) SDS solution, 2.0% (w/v) SDS

Question: Which results are given for COc1ccc2c(c1)-c1nc(SCC(F)(F)F)n(C)c(=O)c1C(C)(C)C2 [CCG-211790, 9-Methoxy-3,5,5-trimethyl-2-((2,2,2-trifluoroethyl)thio)-5,6-dihydrobenzo[h]quinazolin-4(3H)-one]?
Answer: half-life (Microsomal stability): 19.6 min; viability at 24 h, 6.25 µM [1, 3]: 79.6%; viability at 24 h, 6.25 µM [1, 4]: 84.3%; viability at 24 h, 12.5 µM [1, 3]: 80.8%; viability at 24 h, 12.5 µM [1, 4]: 76.2%; viability at 24 h, 25 µM [1, 3]: 69%; viability at 24 h, 25 µM [1, 4]: 65.3%; viability at 24 h, 50 µM ([1]; TZM-bL cells (HeLa cell derivative), 50 µM, single samples, read-out: Cell viability %): 61.3%; viability at 24 h, 50 µM ([1]; TZM-bL cells (HeLa derivative), 50 μM, normalized to DMSO, read-out: cell survival rate (mean of cell viability)): 56.1 ± 5.3%; cytotoxic concentration (50 μM) as fold of the anti-biofilm IC50 (TZM-bL cells; 50 μM on TZM-bL cells vs biofilm IC50): about 39 fold; Cell viability % (TZM-bL cells; TZM-bL cells, 6.25 µM, 24 h): 86.99% and 84.77% and 85.92%; Cell viability % (TZM-bL cells; TZM-bL cells, 12.5 µM, 24 h): 82.11% and 70.18% and 71.70%; Cell viability % (TZM-bL cells; TZM-bL cells, 25 µM, 24 h): 69.05% and 56.68% and 66.50%; cell survival rate (mean of cell viability) (TZM-bL cells; TZM-bL cells, 50 μM, 24 h, normalized to DMSO): 56.05%; Cell viability % (TZM-bL cells; TZM-bL cells, 50 µM, 24 h): 57.46% and 48.66% and 56.82%; solubility class according to the definition of US Pharmacopeia (Solubility in water; solubility less than 100 μg/mL): practically insoluble; solubility at 20 h (Solubility in water; thermodynamic from solid, room temperature, 20 h, HPLC): 0.038 ± 0.01 µg/mL (≈ 0.0988 µM); solubility at 24 h [2, 5]: 32.9 µg/mL (≈ 85.6 µM); solubility at 48 h [2, 5]: 26.8 µg/mL (≈ 69.7 µM); solubility [2, 5]: 29.9 ± 4.3 µg/mL (≈ 77.8 µM); solubility at 24 h [2, 6]: 68.5 µg/mL (≈ 178 µM); solubility at 48 h [2, 6]: 63.8 µg/mL (≈ 166 µM); solubility [2, 6]: 66.1 ± 3.3 µg/mL (≈ 172 µM); solubility at 24 h [2, 7]: 161 µg/mL (≈ 420 µM); solubility at 48 h [2, 7]: 150 µg/mL (≈ 389 µM); solubility [2, 7]: 156 ± 8.3 µg/mL (≈ 405 µM)

From publication PMC7870075, “Physicochemical properties and formulation development of a novel compound inhibiting Staphylococcus aureus biofilm formation” (PLoS ONE, 2021)
